These results are taken from PMC6302903, “Protein and Chemical Determinants of BL-1249 Action and Selectivity for K2P Channels” (ACS Chemical Neuroscience, 2018).

The target in the assay is T1, K2P4.1(TRAAK) M134F (Mus musculus, UniProt O88454, M134F).
T1 construct: expressed in transfected cells; host or cells: Xenopus laevis oocytes, mRNA injected
In words: TEVC of K2P4.1(TRAAK) mutant M134F. The class given is cell-based. Particulars: Xenopus oocytes, saturation not reached, fit with upper boundary of 15 (I/I0). From the text: To identify K2P2.1(TREK-1) M2 residues that might participate in the BL-1249 response, we mapped the residues that differ between K2P2.1(TREK-1) and K2P4.1(TRAAK) in the context of the K2P2.1(TREK-1) structure[6] (Figure 5B,C). Two K2P2.1(TREK-1) M2 residues stood out as candidates that could explain the reduction in BL-1249 response when the entire M2 helix was replaced with M2 from K2P4.1(TRAAK). One is at the M2/M4 interface and occurs between Phe172 and Arg297 via a π–cation interaction that would be lost when Phe172 is replaced with the equivalent K2P4.1(TRAAK) residue Met134 (Figure 5C, right inset). […] To assess the importance of these interactions in the context of BL-1249 response, we made the K2P2.1(TREK-1) mutants F172M and F185L and measured their responses to BL-1249 (Figure 5D). […]
Xenopus laevis oocytes were harvested in accordance with UCSF IACUC protocol AN129690 and digested in calcium-free ND-96 (96 mM NaCl, 2 mM KCl, 3.8 mM MgCl2) immediately following harvest, as previously described.[6],[10] […] Defolliculated stage V–VI oocytes were injected with 0.2–6.0 ng of mRNA in 50 nL, and currents were recorded 24–48 h after injection. mRNA was synthesized from plasmid DNA using mMessage mMachine Kit (T7 promoter, Ambion, Life Technologies) and purified using RNEasy Kit (Qiagen). […]

T1 sequence (O88454 whole entry M134F): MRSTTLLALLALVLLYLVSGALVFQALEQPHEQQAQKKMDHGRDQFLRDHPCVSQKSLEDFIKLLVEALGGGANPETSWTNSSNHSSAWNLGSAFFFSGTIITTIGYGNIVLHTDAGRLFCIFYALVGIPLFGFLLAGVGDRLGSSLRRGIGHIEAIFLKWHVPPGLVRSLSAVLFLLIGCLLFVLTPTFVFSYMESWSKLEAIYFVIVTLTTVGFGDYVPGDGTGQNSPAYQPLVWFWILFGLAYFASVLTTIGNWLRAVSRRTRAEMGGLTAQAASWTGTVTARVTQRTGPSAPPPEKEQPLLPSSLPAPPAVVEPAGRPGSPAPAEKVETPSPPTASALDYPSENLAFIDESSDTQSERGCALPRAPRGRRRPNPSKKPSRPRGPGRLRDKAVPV

On to `c1ccc(-c2nnn[nH]2)c(Nc2cccc3c2CCCC3)c1` [BL-1249, (5,6,7,8-tetrahydro-naphthalen-1-yl)-[2-(1H-tetrazol-5-yl)-phenyl]-amine], for which the midpoint of the response, the EC50, lay at 58 ± 34 µM.
